Results reported in patent publication US20040223967A1, “Blood coagulation factor-activating protein and antibody thereto” (RIKEN, priority 2000, published 2004).
“And” between values parts separate entries of the source, which are not always exact repeats. Equal values may be shown once. Read-outs that look alike come from different tables or passages of the source.

T1: F-IX-activating enzyme (Homo sapiens, UniProt P08246)
T1 construct: 1-219; from tissue; host or cells: erythrocyte membranes (crude surfactant extract)
T1 sequence (P08246 30-248): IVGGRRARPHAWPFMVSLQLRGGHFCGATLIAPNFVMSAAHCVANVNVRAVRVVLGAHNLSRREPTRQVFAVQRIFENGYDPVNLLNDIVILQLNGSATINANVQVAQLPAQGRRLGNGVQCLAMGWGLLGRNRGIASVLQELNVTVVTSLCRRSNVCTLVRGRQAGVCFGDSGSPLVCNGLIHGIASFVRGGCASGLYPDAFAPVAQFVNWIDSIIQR

T2: factor IX-activating protein (erythrocyte membrane extract) (Homo sapiens, UniProt P08246)
T2 construct: 1-219; from tissue; host or cells: erythrocyte membranes (surfactant extract / chromatography fractions)
T2 sequence (P08246 30-248): T1 sequence (P08246 30-248)

B1: soybean trypsin inhibitor (protein)
chain: DFVLDNEGNPLENGGTYYILSDITAFGGIRAAPTGNERCPLTVVQSRNELDKGIGTIISSPYRIRFIAEGHPLSLKFDSFAVIMLCVGIPTEWSVVEDLPEGPAVKIGENKDAMDGWFRLERVSDDEFNNYKLVFCPQQAEDDKCGDIGISIDHDDGTRRLVVSKNKPLVVQFQKLDKESL

What was measured:
[1] = target: T1, F-IX-activating enzyme; test: Assay of inhibitor effect: fluorogenic substrate Suc(OMe)-Ala-Ala-Pro-Val-MCA with crude enzyme extract; assay type: biochemical
Experimental: Relative activity of the enzyme is a ratio of the fluorogenic intensity of the mixture of a fluorogenic synthetic substrate (Suc(OME)-Ala-Ala-Pro-Val-MCA), specific for elastase, the enzyme and inhibitor or antibody to that of the mixture of the fluorogenic substrate and enzyme not containing inhibitor or antibody (control).
To measure the fluorescence intensity of a mixture of inhibitor and the enzyme or elastase, 3 μl of 2 mM fluorogenic synthetic substrate, 2 μl of the enzyme or elastase (concentration: 0.5 mU) and inhibitor or antibody were added to 190 μl HEPES buffer. After incubating the mixture for 30 min at 37° C., 100 μl of the incubated mixture was added to 2 ml of HEPES buffer and the fluorescence intensity was measured using a fluorescence spectrophotometer at λex=380 nm and λem=460 nm.
In the experiments, a crude extract with enzymatic activity, before subjecting to anion-exchange chromatography, was used.

[2] = target: T2, factor IX-activating protein (erythrocyte membrane extract); test: Activation of factor IX by the erythrocyte membrane extract, examined by SDS-PAGE; assay type: biochemical; conditions: inhibitor added to solution containing the extract
Experimental: 25 μg of pure factor IX (Enzyme Res. Lab.) was dissolved in 50 μl of HEPES buffer, and was mixed with washed erythrocytes (hematocrit: about 40%). 10 μl of 26 mM CaCl2 was added to the suspension, and the mixture was incubated at 37° C. for 30 minutes, and then 30 μl of 0.1 M EDTA was added to the suspension to stop the reaction. The suspension was centrifuged to completely remove erythrocytes, and the supernatant was subjected to SDS-PAGE and Western blot analysis to examine whether the coagulation factor was activated or not. 7.5 to 15% gradient gel was used, and electrophoresis was performed at a constant current of 20 mA in the presence of 0.1% SDS. Protein bands were stained for 3 hours with a 50% ethanol (v/v)/7% acetic acid solution containing 0.25% (w/v) Coomassie brilliant blue R-250 (CBB). When activated factor IX was detected by SDS-PAGE, immunostaining was performed to confirm that the resulting band was of activated coagulation factor IX. In the immunostaining procedures, the gel subjected to electrophoresis was buffered using Towbin buffer (25 mM Tris-HCl (pH 8.3), 192 mM glycin, 20% (v/v) methanol, 0.1% SDS) for 15 minutes, followed by transferring to a polyvinylidene difluoride (PVDF) membrane under conditions of 15V and 150 mA. […]

[3] = material concentration 1 mM, 30 min at 37° C., control without material = 100.0

Molecule	Relative activity of the enzyme (%) [1, 3]	other results
[Ca+2].[Cl-].[Cl-] [CaCl2]	156.4%	–
O=C(O)CN(CCN(CC(=O)O)CC(=O)O)CC(=O)O [EDTA, reference compound]	74.5%	Relative activity of the enzyme (%) ([1]; material concentration 10 mM, 30 min at 37° C., control without material = 100.0): 27.0%
CC(=O)N[C@@H](CC(C)C)C(=O)N[C@@H](CC(C)C)C(=O)N[C@H](C=O)CCCNC(=N)N [Leupeptin, reference compound]	78.5%	–
[Cl-].[Cl-].[Mg+2] [MgCl2]	100.5%	–
[Cl-].[Na+] [NaCl]	–	Relative activity of the enzyme (%) [1]: 95.5% and 84.3%
O=S(=O)(F)Cc1ccccc1 [PMSF, reference compound]	19.2%	–
c1cnc2c(c1)ccc1cccnc12 [Phenanthroline, reference compound]	28.8%	–
B1	–	Relative activity of the enzyme (%) ([1]; material concentration 1%, 30 min at 37° C., control without material = 100.0): 65.1%; activation of factor IX by the extract [2]: inhibited
